Here are results for 17 compounds from US12583861B2, “Derivatives of imidazo[4,5-d]pyridazine, their preparation and their therapeutic application” (SANOFI, priority 2021, dated 2026).

One assay has as its target T1, human TLR7 (Homo sapiens, UniProt Q9NYK1).
T1 construct: host or cells: HEK293 (HEK-Blue hTLR7)
T1 sequence (Q9NYK1 27-1049): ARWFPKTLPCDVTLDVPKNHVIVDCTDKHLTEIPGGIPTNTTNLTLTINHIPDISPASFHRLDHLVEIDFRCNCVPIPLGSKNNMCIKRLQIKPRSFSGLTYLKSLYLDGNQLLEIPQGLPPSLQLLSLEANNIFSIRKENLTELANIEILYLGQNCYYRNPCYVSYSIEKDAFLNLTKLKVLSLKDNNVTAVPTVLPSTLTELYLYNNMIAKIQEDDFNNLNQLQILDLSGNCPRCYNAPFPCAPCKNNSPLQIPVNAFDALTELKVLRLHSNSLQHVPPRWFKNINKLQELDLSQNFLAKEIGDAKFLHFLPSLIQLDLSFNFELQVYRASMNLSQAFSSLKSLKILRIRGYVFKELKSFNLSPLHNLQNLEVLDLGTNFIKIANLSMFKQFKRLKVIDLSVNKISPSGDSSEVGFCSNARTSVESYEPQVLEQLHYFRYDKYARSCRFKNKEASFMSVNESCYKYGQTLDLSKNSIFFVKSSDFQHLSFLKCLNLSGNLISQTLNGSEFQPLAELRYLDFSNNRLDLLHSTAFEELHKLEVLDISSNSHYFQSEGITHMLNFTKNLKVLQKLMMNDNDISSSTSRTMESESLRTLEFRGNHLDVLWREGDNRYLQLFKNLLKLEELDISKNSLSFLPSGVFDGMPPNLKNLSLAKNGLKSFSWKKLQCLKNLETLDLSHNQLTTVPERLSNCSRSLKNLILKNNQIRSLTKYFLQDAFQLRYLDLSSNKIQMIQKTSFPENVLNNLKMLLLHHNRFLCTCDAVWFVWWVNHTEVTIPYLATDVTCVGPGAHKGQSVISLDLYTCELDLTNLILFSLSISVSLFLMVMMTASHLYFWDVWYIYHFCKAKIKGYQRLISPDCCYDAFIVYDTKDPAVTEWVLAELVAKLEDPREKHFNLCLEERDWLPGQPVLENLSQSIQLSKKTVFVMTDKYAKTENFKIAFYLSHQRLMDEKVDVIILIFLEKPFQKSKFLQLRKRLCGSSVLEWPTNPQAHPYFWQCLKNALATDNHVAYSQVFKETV
Briefly: HEK-Blue hTLR7 reporter cell assay (SEAP, NF-kB/AP-1) for stimulation of human TLR7. Type of assay: cell-based. The settings on record: HEK-Blue hTLR7 cells; for EC50: 24 h incubation, SEAP readout, read-out: TLR7_EC50. The protocol:
(§1) The below tests, involving measuring the in vitro activity of some compounds of the disclosure on TLR7 and TLR8, were carried out using the HEK-Blue™ cells as reporter.
The activity described below, with respect to TLR7, TLR8, IFN-α2a, IL-6, IL29 and TNF-α, is given by the half maximal effective concentration (EC50), which corresponds to the concentration required to obtain a 50% of the activation. The lower the EC50, the less the concentration of the compound is required to produce 50% of maximum activation and the higher the potency.
(§2) In Vitro Assay for Studying the Stimulation of Human TLR7 and TLR8:
(§3) HEK-Blue™ hTLR7 Cells (#hkb-htlr7) and HEK-Blue™ hTLR8 Cells (#hkb-htlr8) from InvivoGen were used according to the manufacturer's instructions. These Reporter HEK293 cells were obtained by co-transfection of the hTLR7 or TLR8 gene and an optimized Secreted Embryonic Alkaline Phosphatase (SEAP) reporter gene which is placed under the control of the IFN-β minimal promoter fused to five NF-κB and AP-1-binding sites. Stimulation with a TLR7/8 ligand activates NF-kB and AP-1 which induce the production of SEAP. The cells are seeded in 96-well plate at 3.10E4 cells/well and incubated 18 to 24 h at 37° C., 5% CO2 before adding the compounds to evaluate. The cells are subsequently incubated with 3-fold serial dilutions of each of the compounds (0.01 to 20 μM) for 24 hours at 37° C., 5% CO2. Next, 20 μL of the supernatant is harvested and incubated with 200 μL of QUANTI-Blue™ Solution.

Another assay addresses T2, human TLR8 (Homo sapiens, UniProt Q9NR97).
T2 construct: host or cells: HEK293 (HEK-Blue hTLR8)
T2 sequence (Q9NR97 27-1041): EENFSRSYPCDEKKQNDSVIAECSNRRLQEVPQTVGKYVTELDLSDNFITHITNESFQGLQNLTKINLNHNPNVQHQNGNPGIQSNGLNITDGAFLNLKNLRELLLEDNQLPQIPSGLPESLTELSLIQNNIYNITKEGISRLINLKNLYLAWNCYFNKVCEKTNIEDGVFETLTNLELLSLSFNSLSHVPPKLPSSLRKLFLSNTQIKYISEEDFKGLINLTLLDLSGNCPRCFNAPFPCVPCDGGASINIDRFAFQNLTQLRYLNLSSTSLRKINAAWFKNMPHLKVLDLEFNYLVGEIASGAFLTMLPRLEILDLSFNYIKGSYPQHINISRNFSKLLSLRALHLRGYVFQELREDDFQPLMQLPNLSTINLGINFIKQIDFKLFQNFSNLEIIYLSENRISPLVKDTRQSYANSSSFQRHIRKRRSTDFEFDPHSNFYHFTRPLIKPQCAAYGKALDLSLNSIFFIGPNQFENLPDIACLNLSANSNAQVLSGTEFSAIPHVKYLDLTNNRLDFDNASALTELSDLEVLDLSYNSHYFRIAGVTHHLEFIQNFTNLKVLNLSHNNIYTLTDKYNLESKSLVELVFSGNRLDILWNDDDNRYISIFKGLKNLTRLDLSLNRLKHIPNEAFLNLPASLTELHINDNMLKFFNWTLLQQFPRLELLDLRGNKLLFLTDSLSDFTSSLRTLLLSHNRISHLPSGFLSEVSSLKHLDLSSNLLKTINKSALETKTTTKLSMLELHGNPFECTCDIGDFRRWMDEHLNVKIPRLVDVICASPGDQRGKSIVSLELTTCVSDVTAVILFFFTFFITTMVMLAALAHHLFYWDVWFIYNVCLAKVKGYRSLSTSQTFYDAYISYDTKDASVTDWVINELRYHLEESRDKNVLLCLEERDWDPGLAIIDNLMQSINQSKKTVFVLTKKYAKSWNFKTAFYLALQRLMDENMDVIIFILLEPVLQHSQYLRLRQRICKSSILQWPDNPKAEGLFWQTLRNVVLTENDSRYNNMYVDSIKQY
Briefly: HEK-Blue hTLR8 reporter cell assay (SEAP, NF-kB/AP-1) for stimulation of human TLR8. Conditions: HEK-Blue hTLR8 cells; for EC50: 24 h incubation, SEAP readout, read-out: TLR8_EC50. The assay is classed as cell-based. The procedure:
as §1, §2
as §3, with “The cells are subsequently incubated with 3-fold serial dilutions of each of the compounds (0.01 to 20 μM) for 24 hours at 37° C., 5% CO2.” left out

Structures can show the parent of a compound that is named as a salt.

Consider `CCCCc1nc2c(N)nnc(OC(C)C)c2n1Cc1ccc(CNS(C)(=O)=O)cc1` [Compound 115, N-(4-((4-amino-2-butyl-7-isopropoxy-1H-imidazo[4,5-d]pyridazin-1-yl)methyl)benzyl)methanesulfonamide], for which the EC50 at human TLR7 is 107 nM; at human TLR8 it was over 16500 nM.

For the compound `Cc1nc2c(N)nnc(OC(C)C)c2n1Cc1ccc(CN)cc1` [Compound 160, 1-(4-(aminomethyl)benzyl)-7-isopropoxy-2-methyl-1H-imidazo[4,5-d]pyridazin-4-amine], the activation at 20 µM was determined as 35% at human TLR7 (24 h, at 20000 nM) and 18% on human TLR8 (24 h, at 20000 nM).

Consider `CCCCc1nc2c(N)nnc(OC(C)C)c2n1C[C@H]1CC[C@H](N)CC1` [Compound 25], for which the EC50 on human TLR7 was 109 nM; at human TLR8 it was over 20000 nM.

`CCCCc1nc2c(N)nnc(OC(C)C)c2n1Cc1ccncc1` [Compound 76, 2-butyl-7-isopropoxy-1-(pyridin-4-ylmethyl)-1H-imidazo[4,5-d]pyridazin-4-amine 2,2,2-trifluoroacetate]: the EC50 is 1350 nM on human TLR7 and over 20000 nM at human TLR8.

Consider `CCCCc1nc2c(N)nnc(C3CCCCC3)c2n1Cc1ccc(OC)cc1` [Compound 51, 2-butyl-7-cyclohexyl-1-(4-methoxybenzyl)-1H-imidazo[4,5-d]pyridazin-4-amine], for which the EC50 on human TLR7 was 1020 nM; at human TLR8 it was over 20000 nM.

With `CCCCc1nc2c(N)nnc(OC(C)C)c2n1Cc1cccc(CN(C)C)c1` [Compound 125, 2-butyl-1-(3-((dimethylamino)methyl)benzyl)-7-isopropoxy-1H-imidazo[4,5-d]pyridazin-4-amine], the EC50 at human TLR7 worked out at 392 nM; on human TLR8, 115 nM.

With `CCCCc1nc2c(N)nnc(OC(C)C)c2n1Cc1ccc(CNC(C)C)cc1` [Compound 83, 2-butyl-7-isopropoxy-1-(4-((isopropylamino)methyl)benzyl)-1H-imidazo[4,5-d]pyridazin-4-amine dihydrochloride], the EC50 on human TLR7 was 8 nM; at human TLR8, 637 nM.

Turning to `CCCCc1nc2c(N)nnc(OC(C)C)c2n1Cc1ccc(CN(C)C)cc1` [Compound 116, 2-butyl-1-(4-((dimethylamino)methyl)benzyl)-7-isopropoxy-1H-imidazo[4,5-d]pyridazin-4-amine], the EC50 on human TLR7 was determined as 34 nM; on human TLR8 it was 1820 nM.

On to `CCC[S+]([O-])c1nc2c(N)nnc(OC(C)C)c2n1Cc1ccc(CN)cc1` (stereo not shown) [Compound 162, 3-[[4-(aminomethyl)phenyl]methyl]-4-isopropoxy-2-propylsulfinyl-imidazo[4,5-d]pyridazin-7-amine], for which the EC50 is 6700 nM at human TLR7 and over 20000 nM at human TLR8.

For `CCCCc1nc2c(N)nnc(OC(C)C)c2n1Cc1ccc(CN2CCNCC2)cc1` [Compound 40, 2-butyl-7-isopropoxy-1-(4-(piperazin-1-ylmethyl)benzyl)-1H-imidazo[4,5-d]pyridazin-4-amine], the EC50 at human TLR7 is 21 nM; on human TLR8 it was 2290 nM.

As to `CCCCc1nc2c(N)nnc(NC(C)C)c2n1C` [Compound 88, 2-butyl-N7-isopropyl-1-methyl-1H-imidazo[4,5-d]pyridazine-4,7-diamine], the EC50 at human TLR7 was determined as 2980 nM; at human TLR8 it was 13600 nM.

With `CCCCc1nc2c(N)nnc(OC(C)C)c2n1CCCCN` [Compound 149, 3-(4-aminobutyl)-2-butyl-4-isopropoxy-imidazo[4,5-d]pyridazin-7-amine dihydrochloride salt], the EC50 was 12600 nM at human TLR7 and over 20000 nM at human TLR8.

In the case of `CCCCc1nc2c(N)nnc(-c3cc[nH]c3)c2n1Cc1ccc(CN)cc1` [Compound 135, 1-(4-(aminomethyl)benzyl)-2-butyl-7-(1H-pyrrol-3-yl)-1H-imidazo[4,5-d]pyridazin-4-amine 2,2,2-trifluoroacetate], the EC50 at human TLR7 was 136 nM; at human TLR8, 252 nM.

On to `CCCCc1nc2c(N)nnc(N3CCCC3)c2n1C[C@H]1CC[C@H](N)CC1` [Compound 143, 3-[(4-aminocyclohexyl)methyl]-2-butyl-4-pyrrolidin-1-yl-imidazo[4,5-d]pyridazin-7-amine], for which the EC50 at human TLR7 is 11000 nM; on human TLR8, over 20000 nM.

As for `CCCCc1nc2c(N)nnc(OC(C)C)c2n1Cc1ccc(CNC(=O)CCOC)cc1` [Compound 107, N-(4-((4-amino-2-butyl-7-isopropoxy-1H-imidazo[4,5-d]pyridazin-1-yl)methyl)benzyl)-3-methoxypropanamide], the results for the EC50 at human TLR7 and on human TLR8 were 205 nM and over 20000 nM, respectively.

For the compound `CCCCc1nc2c(N)nnc(OC(C)C)c2n1Cc1ccc(CNC)cc1` [Compound 118, 2-butyl-7-isopropoxy-1-(4-((methylamino)methyl)benzyl)-1H-imidazo[4,5-d]pyridazin-4-amine], the EC50 at human TLR7 is 11 nM; on human TLR8 it was 1490 nM.

In the case of `CCCCc1nc2c(N)nnc(N3CCCC3)c2n1C` [Compound 42, 2-butyl-1-methyl-7-(pyrrolidin-1-yl)-1H-imidazo[4,5-d]pyridazin-4-amine], the EC50 came to 1480 nM on human TLR7 and 8780 nM at human TLR8.
